# From BindingDB's records for patent US9617239 (North Carolina Central University, 2017)
# Biological target: Beta-glucuronidase (Escherichia coli (strain K12), UniProt P05804)
# Assay: β-Glucuronidase Activity Assay
# Protocol: The β-glucuronidase assay was performed by the addition of 0.5 μl of compound (or DMSO) to the well of a black 384-well plate followed by the addition of 30 μl of diluted β-glucuronidase enzyme. […] After a 30 minute incubation at room temperature, the reaction was stopped by the addition of 20 ul 1 M Na2CO3. […] Minimum (min) controls were performed using reactions with no enzyme. Maximum (max) controls were performed using no compound. 1% DMSO was maintained in all reactions. Percent inhibition was calculated using RFU data by the following formula: [1−(assay readout-average of min)/(Average of Max-Average of Min)]×100
# Sequence of Beta-glucuronidase (P05804 whole entry): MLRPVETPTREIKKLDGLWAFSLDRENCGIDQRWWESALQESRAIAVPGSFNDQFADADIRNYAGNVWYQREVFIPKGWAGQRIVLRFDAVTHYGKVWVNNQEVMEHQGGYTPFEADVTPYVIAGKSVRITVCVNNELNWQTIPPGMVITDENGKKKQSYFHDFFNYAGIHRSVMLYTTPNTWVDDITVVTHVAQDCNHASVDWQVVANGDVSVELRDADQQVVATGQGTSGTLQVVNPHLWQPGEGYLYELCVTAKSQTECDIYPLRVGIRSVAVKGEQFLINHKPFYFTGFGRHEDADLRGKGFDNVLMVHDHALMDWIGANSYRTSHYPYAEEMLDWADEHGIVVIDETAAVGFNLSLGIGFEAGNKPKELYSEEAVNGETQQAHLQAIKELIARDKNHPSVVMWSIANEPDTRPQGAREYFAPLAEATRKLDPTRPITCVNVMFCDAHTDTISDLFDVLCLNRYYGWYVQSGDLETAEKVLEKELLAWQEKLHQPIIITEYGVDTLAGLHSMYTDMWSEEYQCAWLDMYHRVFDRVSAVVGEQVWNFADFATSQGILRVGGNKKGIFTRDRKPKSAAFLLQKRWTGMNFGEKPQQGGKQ
smiles,measurement,value
"O=S(=O)(NCc1cccc2ccccc12)c1cc(Cl)c(Oc2ccc3c(c2)OCO3)s1 [US9617239, BRITE-355233]",IC50,376 µM
